Assay results from US11117900B2 (Vertex Pharmaceuticals Incorporated, priority 2012, dated 2021).

Test system: HCT116 colorectal cancer cells
Assay: Cisplatin sensitization assay (96 h MTS cell viability);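 note: compound concentration needed to lower the IC50 of Cisplatin alone by a set fold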
Format: cell-based
Conditions: Cisplatin sensitization value
Protocol: Compounds can be screened for their ability to sensitize HCT116 colorectal cancer cells to Cisplatin using a 96 h cell viability (MTS) assay. […] Compounds and Cisplatin are then both added simultaneously to the cell media in 2-fold serial dilutions from a top final concentration of 10 μM as a full matrix of concentrations in a final cell volume of 200 μl, and the cells are then incubated at 37° C. in 5% CO2. After 96 h, 40 μl of MTS reagent (Promega G358a) is added to each well and the cells are incubated for 1 h at 37° C. in 5% CO2.
Compounds with a Cisplatin sensitization value of <0.02 μM are marked with “+++.” Compounds with a Cisplatin sensitization value >0.02 μM but <0.2 μM are marked with “++.” Compounds with a Cisplatin sensitization value >0.2 μM but <5 μM are marked with “+.”

Row | SMILES | Cisplatin Sensitization Assay
1 | Nc1nn2cc(F)cnc2c1C(=O)Nc1cnccc1N1CCN(C2CCOC2)CC1 (racemic) [I-N-19, (R,S)-2-amino-6-fluoro-N-(4-(4-(tetrahydrofuran-3-yl)piperazin-1-yl)pyridin-3-yl)pyrazolo[1,5-a]pyrimidine-3-carboxamide] | +++ (Compounds with a Cisplatin sensitization value of <0.02 μM are marked with “+++.”)
2 | N#CCc1cnc2c(C(=O)Nc3cnccc3OC3CCCNC3)c(N)nn2c1 (racemic) [I-O-2, (R,S)-2-amino-6-(cyanomethyl)-N-(4-(piperidin-3-yloxy)pyridin-3-yl)pyrazolo[1,5-a]pyrimidine-3-carboxamide] | ++ (Compounds with a Cisplatin sensitization value >0.02 μM but <0.2 μM are marked with “++.”)
3 | Nc1nn2cc(F)cnc2c1C(=O)Nc1cnccc1OC1CN2CCC1CC2 (racemic) [I-O-6, (R,S)-2-amino-6-fluoro-N-(4-(quinuclidin-3-yloxy)pyridin-3-yl)pyrazolo[1,5-a]pyrimidine-3-carboxamide] | +++ (Compounds with a Cisplatin sensitization value of <0.02 μM are marked with “+++.”)
4 | Nc1nn2cc(F)cnc2c1C(=O)Nc1cnccc1OC1CCOC1 (racemic) [I-O-15, (R,S)-2-amino-6-fluoro-N-(4-((tetrahydrofuran-3-yl)oxy)pyridin-3-yl)pyrazolo[1,5-a]pyrimidine-3-carboxamide] | +++ (Compounds with a Cisplatin sensitization value of <0.02 μM are marked with “+++.”)
5 | N#CCc1cnc2c(C(=O)Nc3cnccc3OC3CCOC3)c(N)nn2c1 (racemic) [I-O-37, (R,S)-2-amino-6-(cyanomethyl)-N-(4-((tetrahydrofuran-3-yl)oxy)pyridin-3-yl)pyrazolo[1,5-a]pyrimidine-3-carboxamide] | +++ (Compounds with a Cisplatin sensitization value of <0.02 μM are marked with “+++.”)
6 | CN1CCC(c2ccncc2NC(=O)c2c(N)nn3cc(F)cnc23)CC1 [I-C-1, 2-amino-6-fluoro-N-(4-(1-methylpiperidin-4-yl)pyridin-3-yl)pyrazolo[1,5-a]pyrimidine-3-carboxamide] | ++ (Compounds with a Cisplatin sensitization value >0.02 μM but <0.2 μM are marked with “++.”)
7 | Cc1ccncc1NC(=O)c1c(N)nn2cc(Cl)cnc12 [I-C-2, 2-amino-6-chloro-N-(4-methylpyridin-3-yl)pyrazolo[1,5-a]pyrimidine-3-carboxamide] | ++ (Compounds with a Cisplatin sensitization value >0.02 μM but <0.2 μM are marked with “++.”)
8 | Cc1ccncc1NC(=O)c1c(N)nn2cc(F)cnc12 [I-C-4, 2-amino-6-fluoro-N-(4-methylpyridin-3-yl)pyrazolo[1,5-a]pyrimidine-3-carboxamide] | ++ (Compounds with a Cisplatin sensitization value >0.02 μM but <0.2 μM are marked with “++.”)
9 | Nc1nn2cc(F)cnc2c1C(=O)Nc1cnccc1-c1ccccc1 [I-C-5, 2-amino-6-fluoro-N-(4-phenylpyridin-3-yl)pyrazolo[1,5-a]pyrimidine-3-carboxamide] | +++ (Compounds with a Cisplatin sensitization value of <0.02 μM are marked with “+++.”)
10 | N#CCc1cnc2c(C(=O)Nc3cnccc3-c3ccccc3)c(N)nn2c1 [I-C-6, 2-amino-6-(cyanomethyl)-N-(4-phenylpyridin-3-yl)pyrazolo[1,5-a]pyrimidine-3-carboxamide] | +++ (Compounds with a Cisplatin sensitization value of <0.02 μM are marked with “+++.”)
11 | Nc1nn2cc(F)cnc2c1C(=O)Nc1cncc2c1CCNC2 [I-C-7, 2-amino-6-fluoro-N-(5,6,7,8-tetrahydro-2,7-naphthyridin-4-yl)pyrazolo[1,5-a]pyrimidine-3-carboxamide] | ++ (Compounds with a Cisplatin sensitization value >0.02 μM but <0.2 μM are marked with “++.”)
12 | CN1CCc2c(cncc2NC(=O)c2c(N)nn3cc(F)cnc23)C1 [I-C-8, 2-amino-6-fluoro-N-(7-methyl-5,6,7,8-tetrahydro-2,7-naphthyridin-4-yl)pyrazolo[1,5-a]pyrimidine-3-carboxamide] | + (Compounds with a Cisplatin sensitization value >0.2 μM but <5 μM are marked with “+.”)
13 | C[N+]1([O-])CCc2c(cncc2NC(=O)c2c(N)nn3cc(F)cnc23)C1 (stereo not drawn) [I-C-9, 5-(2-amino-6-fluoropyrazolo[1,5-a]pyrimidine-3-carboxamido)-2-methyl-1,2,3,4-tetrahydro-2,7-naphthyridine 2-oxide] | + (Compounds with a Cisplatin sensitization value >0.2 μM but <5 μM are marked with “+.”)
14 | Nc1nn2cc(F)cnc2c1C(=O)Nc1cnccc1C1CCN(C2COC2)CC1 [I-C-10, 2-amino-6-fluoro-N-(4-(1-(oxetan-3-yl)piperidin-4-yl)pyridin-3-yl)pyrazolo[1,5-a]pyrimidine-3-carboxamide] | +++ (Compounds with a Cisplatin sensitization value of <0.02 μM are marked with “+++.”)
15 | Nc1nn2cc(Cl)cnc2c1C(=O)Nc1cnccc1C1CCN(C2COC2)CC1 [I-C-11, 2-amino-6-chloro-N-(4-(1-(oxetan-3-yl)piperidin-4-yl)pyridin-3-yl)pyrazolo[1,5-a]pyrimidine-3-carboxamide] | +++ (Compounds with a Cisplatin sensitization value of <0.02 μM are marked with “+++.”)
16 | Nc1nn2cc(F)cnc2c1C(=O)Nc1cncc(F)c1C1=CCN(C2COC2)CC1 [I-C-12, 2-amino-6-fluoro-N-(5-fluoro-1′-(oxetan-3-yl)-1′,2′,3′,6′-tetrahydro-[4,4′-bipyridin]-3-yl)pyrazolo[1,5-a]pyrimidine-3-carboxamide] | +++ (Compounds with a Cisplatin sensitization value of <0.02 μM are marked with “+++.”)
17 | Nc1nn2cc(F)cnc2c1C(=O)Nc1cncc(F)c1C1CCN(C2COC2)CC1 [I-C-13, 2-amino-6-fluoro-N-(5-fluoro-4-(1-(oxetan-3-yl)piperidin-4-yl)pyridin-3-yl)pyrazolo[1,5-a]pyrimidine-3-carboxamide] | ++ (Compounds with a Cisplatin sensitization value >0.02 μM but <0.2 μM are marked with “++.”)
18 | CN1CCC(c2c(F)cncc2NC(=O)c2c(N)nn3cc(F)cnc23)CC1 [I-C-14, 2-amino-6-fluoro-N-(5-fluoro-4-(1-methylpiperidin-4-yl)pyridin-3-yl)pyrazolo[1,5-a]pyrimidine-3-carboxamide] | + (Compounds with a Cisplatin sensitization value >0.2 μM but <5 μM are marked with “+.”)
19 | Nc1nn2cc(F)cnc2c1C(=O)Nc1cnccc1-c1cccnc1 [I-C-15, N-([3,4′-bipyridin]-3′-yl)-2-amino-6-fluoropyrazolo[1,5-a]pyrimidine-3-carboxamide] | ++ (Compounds with a Cisplatin sensitization value >0.02 μM but <0.2 μM are marked with “++.”)
20 | CN1CCC(C(=O)N2CCC(c3ccncc3NC(=O)c3c(N)nn4cc(F)cnc34)CC2)CC1 [I-C-16, 2-amino-6-fluoro-N-(4-(1-(1-methylpiperidine-4-carbonyl)piperidin-4-yl)pyridin-3-yl)pyrazolo[1,5-a]pyrimidine-3-carboxamide] | + (Compounds with a Cisplatin sensitization value >0.2 μM but <5 μM are marked with “+.”)
21 | CN1CCN(C(=O)N2CCC(c3ccncc3NC(=O)c3c(N)nn4cc(F)cnc34)CC2)CC1 [I-C-17, 2-amino-6-fluoro-N-(4-(1-(4-methylpiperazine-1-carbonyl)piperidin-4-yl)pyridin-3-yl)pyrazolo[1,5-a]pyrimidine-3-carboxamide] | ++ (Compounds with a Cisplatin sensitization value >0.02 μM but <0.2 μM are marked with “++.”)
